Experimental data from patent publication US7601716B2, “Pyridopyrazines and derivatives thereof as ALK and c-Met inhibitors” (Cephalon, Inc., priority 2006, dated 2009).
Counter-ions that a name gives are not always drawn.

How the values were obtained:
[1] = target: T1, c-Met (cytoplasmic domain) (Homo sapiens, UniProt P08581); experiment: c-Met Kinase Assay (ELISA/TRF, PLC-γ substrate); assay type: biochemical; conditions: 3 μM ATP (Km level); read-out: c-Met Kinase Inhibition (IC50)
T1 construct: Reactions were initiated with 30 ng/mL c-Met (cytoplasmic domain, Invitrogen Corporation #PV3143); purchased Invitrogen Corporation PV3143
T1 sequence (P08581 956-1390 limits assumed): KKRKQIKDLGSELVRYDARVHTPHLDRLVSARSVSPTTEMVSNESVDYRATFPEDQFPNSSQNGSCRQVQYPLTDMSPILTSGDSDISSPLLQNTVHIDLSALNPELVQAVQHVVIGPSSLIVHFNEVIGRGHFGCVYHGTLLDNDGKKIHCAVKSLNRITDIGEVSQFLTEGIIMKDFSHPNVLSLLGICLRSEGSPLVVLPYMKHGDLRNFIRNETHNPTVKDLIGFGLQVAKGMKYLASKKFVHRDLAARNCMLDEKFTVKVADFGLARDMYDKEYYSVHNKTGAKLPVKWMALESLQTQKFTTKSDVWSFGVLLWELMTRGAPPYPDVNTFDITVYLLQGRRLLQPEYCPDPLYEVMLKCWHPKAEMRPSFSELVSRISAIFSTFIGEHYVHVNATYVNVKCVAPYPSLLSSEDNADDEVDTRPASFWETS
Protocol: Example compounds were tested for their ability to inhibit the kinase activity of baculovirus-expressed ALK using a modification of the ELISA protocol reported for trkA in Angeles, T. S. et al., Anal. Biochem. 1996, 236, 49-55, which is incorporated herein by reference in its entirety. Phosphorylation of the substrate, phospholipase C-gamma (PLC-γ) generated as a fusion protein with glutathione S-transferase (GST) as reported in Rotin, D. et al., EMBO J. 1992, 11, 559-567, which is incorporated herein by reference in its entirety, was detected with a europium-labeled anti-phosphotyrosine antibody and measured by time-resolved fluorescence (TRF). Briefly, each 96-well plate was coated with 100 μL/well of 10 μg/mL substrate (phospholipase C-γ) in Tris-buffered saline (TBS). […] The reaction was initiated by adding enzyme (30 ng/ml ALK) and was allowed to proceed at 37° C. for 15 minutes. Detection of the phosphorylated product was performed by adding 100 μl/well of Eu-N1 labeled PT66 antibody (Perkin Elmer # AD0041). Incubation at 37° C. then proceeded for one (1) hour, followed by addition of 100 μL enhancement solution (Wallac #1244-105). The plate was gently agitated and after thirty minutes, the fluorescence of the resulting solution was measured using the EnVision 2100 (or 2102) multilabel plate reader (Perkin Elmer).
Data analysis was performed using ActivityBase (IDBS, Guilford, UK). IC50 values were calculated by plotting percent inhibition versus log10 of the concentration of compound and fitting to the nonlinear regression sigmoidal dose-response (variable slope) equation in XLFit (IDBS, Guilford, UK).
Reactions were initiated with 30 ng/mL c-Met (cytoplasmic domain, Invitrogen Corporation #PV3143).

[2] = target: baculovirus-expressed ALK (Homo sapiens, UniProt Q9UM73); experiment: ALK Kinase Assay (ELISA/TRF, PLC-γ substrate); assay type: biochemical; conditions: read-out: ALK Kinase Inhibition (IC50); further: 1 µM ATP (Km level)
Chain of baculovirus-expressed ALK (Q9UM73 19-1620): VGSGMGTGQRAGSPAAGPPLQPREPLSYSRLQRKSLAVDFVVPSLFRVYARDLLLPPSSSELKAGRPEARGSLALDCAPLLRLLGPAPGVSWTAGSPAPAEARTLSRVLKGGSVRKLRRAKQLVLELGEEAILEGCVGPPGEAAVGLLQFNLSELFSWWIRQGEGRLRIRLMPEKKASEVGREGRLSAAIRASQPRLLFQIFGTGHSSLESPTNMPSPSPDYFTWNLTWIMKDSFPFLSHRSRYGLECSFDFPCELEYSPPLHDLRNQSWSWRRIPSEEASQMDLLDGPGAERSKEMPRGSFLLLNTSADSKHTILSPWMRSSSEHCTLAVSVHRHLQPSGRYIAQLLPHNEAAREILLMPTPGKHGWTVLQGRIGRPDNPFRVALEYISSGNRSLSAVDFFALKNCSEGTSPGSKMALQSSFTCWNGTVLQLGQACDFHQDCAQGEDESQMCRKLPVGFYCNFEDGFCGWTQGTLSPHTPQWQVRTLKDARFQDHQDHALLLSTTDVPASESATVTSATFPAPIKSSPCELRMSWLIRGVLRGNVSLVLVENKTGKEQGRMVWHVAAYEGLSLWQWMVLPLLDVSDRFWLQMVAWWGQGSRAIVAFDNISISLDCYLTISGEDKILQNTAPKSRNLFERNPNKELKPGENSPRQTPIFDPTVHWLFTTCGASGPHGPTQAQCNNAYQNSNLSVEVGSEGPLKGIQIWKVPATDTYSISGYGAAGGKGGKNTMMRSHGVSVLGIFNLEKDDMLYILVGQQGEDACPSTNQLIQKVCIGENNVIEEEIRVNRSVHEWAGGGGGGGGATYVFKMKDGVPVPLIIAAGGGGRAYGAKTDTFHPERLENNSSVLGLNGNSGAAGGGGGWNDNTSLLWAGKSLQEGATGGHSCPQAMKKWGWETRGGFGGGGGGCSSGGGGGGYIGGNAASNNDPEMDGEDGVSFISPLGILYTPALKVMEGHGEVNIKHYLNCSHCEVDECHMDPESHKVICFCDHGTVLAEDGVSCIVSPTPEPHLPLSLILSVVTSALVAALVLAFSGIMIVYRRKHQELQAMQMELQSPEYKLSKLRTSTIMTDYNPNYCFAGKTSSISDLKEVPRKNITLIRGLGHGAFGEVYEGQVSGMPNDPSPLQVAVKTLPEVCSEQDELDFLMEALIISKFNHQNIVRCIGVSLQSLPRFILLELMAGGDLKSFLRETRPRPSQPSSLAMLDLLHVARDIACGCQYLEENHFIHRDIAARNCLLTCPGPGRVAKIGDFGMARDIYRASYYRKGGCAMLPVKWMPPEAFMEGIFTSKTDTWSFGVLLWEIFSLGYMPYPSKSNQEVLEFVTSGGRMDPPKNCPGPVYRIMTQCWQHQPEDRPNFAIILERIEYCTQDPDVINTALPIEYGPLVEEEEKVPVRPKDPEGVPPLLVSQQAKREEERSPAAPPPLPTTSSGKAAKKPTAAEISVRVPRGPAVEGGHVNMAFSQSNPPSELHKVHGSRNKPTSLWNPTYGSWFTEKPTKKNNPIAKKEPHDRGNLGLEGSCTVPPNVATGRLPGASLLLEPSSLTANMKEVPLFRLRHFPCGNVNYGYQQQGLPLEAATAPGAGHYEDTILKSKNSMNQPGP
How it was run: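 Read-out: TRF of europium-labeled anti-phosphotyrosine antibody bound to phosphorylated GST–PLC-γ coated at 10 μg/mL. Kinase step used 30 ng/ml ALK, 37° C, 15 minutes. IC50 values fitted by nonlinear sigmoidal dose-response (variable slope).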

IC50 [1] [µM]	IC50 [2] [µM]	Structure (SMILES)
> 100	0.1 to 1	O=C(NCCc1ccccc1)c1cnc2c(c1)N(Cc1cc(Cl)ccc1Cl)CCN2 [Example 253, 1-(2,5-Dichlorobenzyl)-1,2,3,4-tetrahydropyrido[2,3-b]pyrazine-7-carboxylic acid phenethyl-amide]
10 to 100	0.1 to 1	CN1CCN(c2ccc(-c3cnc4c(c3)N(S(=O)(=O)c3ccccc3)CCN4)cn2)CC1 [Example 125, 1-Benzenesulfonyl-7-[6-(4-methylpiperazin-1-yl)pyridin-3-yl]-1,2,3,4-tetrahydropyrido[2,3-b]pyrazine]
10 to 100	1 to 10	O=C(NC1CCN(Cc2ccccc2)CC1)c1cnc2c(c1)N(Cc1cc(Cl)ccc1Cl)CCN2 [Example 225, 1-(2,5-Dichlorobenzyl)-1,2,3,4-tetrahydropyrido[2,3-b]pyrazine-7-carboxylic acid (1-benzyl-piperidin-4-yl)amide]
> 100	> 100	Fc1cccc(CN2CCNc3ncc(I)cc32)c1C(F)(F)F [Example 179, 1-[3-Fluoro-2-(trifluoromethyl)benzyl]-7-iodo-1,2,3,4-tetrahydropyrido[2,3-b]pyrazine]
10 to 100	1 to 10	O=C(c1cnc2c(c1)N(Cc1cc(Cl)ccc1Cl)CCN2)N1CCC(N2CCOCC2)CC1 [Example 231, [1-(2,5-Dichlorobenzyl)-1,2,3,4-tetrahydropyrido[2,3-b]pyrazin-7-yl]-(4-morpholin-4-yl-piperidin-1-yl)methanone]
1 to 10	1 to 10	CN1CCN(c2cc(-c3cnc4c(c3)N(Cc3ccc(C(F)(F)F)o3)CCN4)ccn2)CC1 [Example 293, 7-[2-(4-Methylpiperazin-1-yl)pyridin-4-yl]-1-[5-(trifluoromethyl)furan-2-ylmethyl]-1,2,3,4-tetrahydropyrido[2,3-b]pyrazine]
10 to 100	1 to 10	c1ccc(CN2CCNc3ncc(-c4cccnc4)cc32)cc1 [Example 34, 1-Benzyl-7-pyridin-3-yl-1,2,3,4-tetrahydropyrido[2,3-b]pyrazine]
10 to 100	10 to 100	CN1CCN(CCS(=O)(=O)Nc2ccc(-c3cnc4c(c3)N(C(=O)c3ccccc3)CCN4)cc2)CC1 [Example 47, 2-(4-Methylpiperazin-1-yl)-ethanesulfonic acid[4-(1-benzoyl-1,2,3,4-tetrahydropyrido[2,3-b]pyrazin-7-yl)phenyl]amide]
10 to 100	10 to 100	O=C(c1cnc2c(c1)N(Cc1cc(Cl)ccc1Cl)CCN2)N1CCOCC1 [Example 243, [1-(2,5-Dichlorobenzyl)-1,2,3,4-tetrahydropyrido[2,3-b]pyrazin-7-yl]morpholin-4-yl-methanone]
> 100	10 to 100	NCC#Cc1cnc2c(c1)N(Cc1c(Cl)cccc1Cl)CCN2 [Example 171, 3-[1-(2,6-Dichlorobenzyl)-1,2,3,4-tetrahydropyrido[2,3-b]pyrazin-7-yl]prop-2-ynylamine, trifluoroacetic acid salt]
10 to 100	0.1 to 1	O=C(NC1CCc2ccccc21)c1cnc2c(c1)N(Cc1cc(Cl)ccc1Cl)CCN2 (centres unmarked) [Example 245, 1-(2,5-Dichlorobenzyl)-1,2,3,4-tetrahydropyrido[2,3-b]pyrazine-7-carboxylic acid indan-1-ylamide]

Continued, compound first:

Structure (SMILES)	IC50 [1] [µM]	IC50 [2] [µM]
NS(=O)(=O)c1ccc(CNC(=O)c2cnc3c(c2)N(Cc2cc(Cl)ccc2Cl)CCN3)cc1 [Example 263, 1-(2,5-Dichlorobenzyl)-1,2,3,4-tetrahydropyrido[2,3-b]pyrazine-7-carboxylic acid 4-sulfamoyl-benzylamide]	> 100	1 to 10
O=C(NCc1cccc(Cl)c1)c1cnc2c(c1)N(Cc1cc(Cl)ccc1Cl)CCN2 [Example 228, 1-(2,5-Dichlorobenzyl)-1,2,3,4-tetrahydropyrido[2,3-b]pyrazine-7-carboxylic acid 3-chlorobenzylamide]	10 to 100	1 to 10
O=C(NC1CCCCC1)c1cnc2c(c1)N(Cc1cc(Cl)ccc1Cl)CCN2 [Example 248, 1-(2,5-Dichlorobenzyl)-1,2,3,4-tetrahydropyrido[2,3-b]pyrazine-7-carboxylic acid cyclohexylamide]	> 100	1 to 10
CC(c1cc(F)ccc1F)N1C(=O)CNc2ncc(I)cc21 (centres unmarked) [Example 150, 1-[1-(2,5-Difluorophenyl)ethyl]-7-iodo-3,4-dihydro-1H-pyrido[2,3-b]pyrazin-2-one]	> 100	> 100
O=C(c1ccc(-c2cnc3c(c2)N(Cc2cccnc2Cl)CCN3)cc1)N1CCC(N2CCCC2)CC1 [Example 303, {4-[1-(2-Chloropyridin-3-ylmethyl)-1,2,3,4-tetrahydropyrido[2,3-b]pyrazin-7-yl]phenyl}-(4-pyrrolidin-1-yl-piperidin-1-yl)methanone]	> 100	> 100
O=C1CNc2ncc(-c3ccc(NS(=O)(=O)CCN4CCCC4)cc3)cc2N1Cc1ccccc1 [Example 45, 2-Pyrrolidin-1-yl-ethanesulfonic acid[4-(1-benzyl-2-oxo-1,2,3,4-tetrahydropyrido[2,3-b]pyrazin-7-yl)phenyl]amide, trifluoroacetic acid salt]	> 100	1 to 10
O=C(NC(c1ccccc1)c1ccccc1)c1cnc2c(c1)N(Cc1cc(Cl)ccc1Cl)CCN2 [Example 233, 1-(2,5-Dichlorobenzyl)-1,2,3,4-tetrahydropyrido[2,3-b]pyrazine-7-carboxylic acid benzhydrylamide]	10 to 100	1 to 10
O=C(c1cnc2c(c1)N(Cc1cc(Cl)ccc1Cl)CCN2)N1CCN(c2ccc(Cl)cc2)CC1 [Example 250, [4-(4-Chlorophenyl)piperazin-1-yl]-[1-(2,5-dichlorobenzyl)-1,2,3,4-tetrahydropyrido[2,3-b]pyrazin-7-yl]methanone]	> 100	0.1 to 1
O=C(c1cnc2c(c1)N(Cc1cc(Cl)ccc1Cl)CCN2)N1CCN(c2ccc(Cl)c(Cl)c2)CC1 [Example 213, [1-(2,5-Dichlorobenzyl)-1,2,3,4-tetrahydropyrido[2,3-b]pyrazin-7-yl]-[4-(3,4-dichlorophenyl)-piperazin-1-yl]methanone]	10 to 100	1 to 10
CC(c1cc(F)c(F)cc1F)N1CCNc2ncc(-c3ccc(C(=O)N4CCN(C)CC4)cc3)cc21 (centres unmarked) [Example 149, (4-Methylpiperazin-1-yl)-(4-{1-[1-(2,4,5-trifluorophenyl)ethyl]-1,2,3,4-tetrahydropyrido[2,3-b]pyrazin-7-yl}phenyl)methanone]	> 100	> 100
CCOC(=O)N1CCC(NC(=O)c2cnc3c(c2)N(Cc2cc(Cl)ccc2Cl)CCN3)CC1 [Example 224, 4-{[1-(2,5-Dichlorobenzyl)-1,2,3,4-tetrahydropyrido[2,3-b]pyrazine-7-carbonyl]amino}piperidine-1-carboxylic acid ethyl ester]	10 to 100	1 to 10
O=C(c1cnc2c(c1)N(Cc1cc(Cl)ccc1Cl)CCN2)N1CCC[C@H]1CN1CCCC1 [Example 238, [1-(2,5-Dichlorobenzyl)-1,2,3,4-tetrahydropyrido[2,3-b]pyrazin-7-yl]-((S)-2-pyrrolidin-1-ylmethyl-pyrrolidin-1-yl)methanone]	> 100	1 to 10
O=C(O)c1ccc(-c2cnc3c(c2)N(Cc2cc(Cl)ccc2C(F)(F)F)CCN3)cc1 [Example 195, 4-{1-[5-Chloro-2-(trifluoromethyl)benzyl]-1,2,3,4-tetrahydropyrido[2,3-b]pyrazin-7-yl}benzoic acid]	1 to 10	1 to 10
CCOC(=O)c1ccc(-c2cnc3c(c2)N(Cc2ccccc2)C(=O)CN3)cn1 [Example 29, 5-(1-Benzyl-2-oxo-1,2,3,4-tetrahydropyrido[2,3-b]pyrazin-7-yl)pyridine-2-carboxylic acid ethyl ester]	10 to 100	0.1 to 1
CC(c1cc(F)ccc1F)N1C(=O)CNc2ncc(-c3ccc(C(=O)N4CCC[C@H]4CN4CCCC4)cc3)cc21 (some centres unmarked) [Example 151]	10 to 100	0.1 to 1
CN1CCN(Cc2cc(Cl)ccc2Cl)c2cc(I)cnc21 [Example 187, 1-(2,5-Dichlorobenzyl)-7-iodo-4-methyl-1,2,3,4-tetrahydropyrido[2,3-b]pyrazine]	> 100	> 100
CN1CCN(C(=O)c2ccc(-c3cnc4c(c3)C(Oc3cccnc3)CCN4)cc2)CC1 (centres unmarked) [Example 276, (4-Methylpiperazin-1-yl)-{4-[5-(pyridine-3-yloxy)-5,6,7,8-tetrahydro-[1,8]naphthyridin-3-yl]phenyl}methanone]	10 to 100	10 to 100
